The subject of the first experiment is A549 human lung carcinoma cells. Put plainly: Growth of A549 cells (SRB). Format: cell-based.
Conditions: not given
As for the experimental part:
The following assay measures growth rates for A549 cells. The purpose of the assay is to determine the effects of compounds on the growth of A549 human lung carcinoma cells. A549 cells are readily accessible from commercial sources, such as ATCC (CCL185).
• 96-well flat bottom sterile plates • 96-well round bottom sterile plates • sterile 25 mL or 100 mL reservoir • pipets, multi-channel pipetman • sterile pipet tips • sterile 15 mL and 50 mL tubes Reagents: • 0.4% SRB in 1% acetic acid • 10 mM Tris base • 10% TCA • 1% acetic acid • sterile DMSO (Sigma) • compound in DMSO (100 mM or less stock solution) • Trypsin-EDTA (GIBCO BRL) Cell Line and Growth Medium: • A549 human lung carcinoma cells (ATCC CCL185) • 10% fetal calf serum in Ham's F12-K Protocol: Day 0: Cell Plating:
This part of assay is carried out in a laminar flow hood. • 1. Trypsinize cells. Transfer 200 μL of cell suspension to 10 mL of isotone. Count cells with a Coulter Counter. • 2. Dilute cells in growth medium to 20,000 cell/mL. Transfer 100 μL of cells to each well in a 96-well flat bottom plate to give 2000 cells/well. • 3. Use half of plate (4 rows) for each compound and quadruplicate wells for each compound concentration, and a set of 4 wells for medium control. • 4. Gently shake plates to allow for uniform attachment of the cells. • 5. Incubate the plates at 37° C. in a 10% CO2 incubator. Day 1: Addition of Compound:
This part of assay is carried out in a laminar flow hood. • 1. In a 96 well-round bottom plate, add 120 μL of growth medium containing 2×final %DMSO found in highest screening concentration of compound to columns 1 to 11. For example, if the highest screening concentration is 100 μM, and this is made from a 100 mM stock, 1×DMSO is 0.1%, so 2×DMSO is 0.2%. This plate is used to titrate out the compound, 4 rows per compound. • 2. In a sterile 15 mL tube, make a 2×solution of the highest screening concentration of compound in growth medium plus 2×DMSO. 1 mL per cell line is needed. The starting concentration of the compound is usually 100 μM but this concentration may vary depending upon the solubility of the compound. • 3. Transfer 240 μL of the 2×starting compound solution to quadruplicate wells in column 12 of the 96-well round bottom plate. Do 1:2 serial dilutions across the plate from right to left by transferring 120 μL from column 12 to column 11, column 11 to 10 and so on through column 2. Transfer 100 μL of compound dilutions, and 100 μL of medium in column 1, onto 100 μL medium on cells in corresponding wells of 96-well flat bottom plate. Total volume per well should be 200 μL. • 4. Return the plate to the incubator and incubate for 3 days. Day 5: Development of Assay
This part of assay is carried out on the bench. • 1. Aspirate or pour off medium. Add 200 μL cold 10% TCA to each well to fix cells. Incubate plate for at least 60 min. at 4° C. • 2. Discard TCA and rinse wells 5 times with tap water. Dry plates upside down on paper towels. • 3. Stain cells with 100 μL/well 0.4% SRB for 10 min. • 4. Pour off SRB and rinse wells 5 times with 1% acetic acid. Dry plates completely upside down on paper towels. • 5. Solubilize dye with 100 μL/well 10 mM Tris base for 5-10 min. on shaker. • 6. Read plates on Dynatech ELISA Plate Reader at 570 nm with reference at 630 nm.
The IC50 is the concentration at which inhibition is half-maximal. `Nc1nc(N)c2c(Oc3ccc(F)cc3)cccc2n1` [Compound A-7, 2,4-Diamino-5-(4-fluorophenoxy)quinazoline] displayed an IC50 of 17.7 µM.

As to `Nc1nc(N)c2c(Oc3ccccc3)cccc2n1` [Compound A-1, 2,4-Diamino-5-phenoxyquinazoline], inhibition was half-maximal at 15.9 µM (IC50).

On to `CC(C)(C)c1ccc(Oc2cccc3nc(N)nc(N)c23)cc1` [Compound A-8, 2,4-Diamino-5-(4-tert-butylphenoxy)quinazoline], for which the IC50 amounted to 77.9 µM.

The compound `COc1cccc(Oc2cccc3nc(N)nc(N)c23)c1` [Compound A-23, 2,4-Diamino-5-(3-methoxyphenoxy)quinazoline] had an IC50 of 18 µM.

The compound `Nc1ncnc2cccc(Oc3ccc(OCc4ccccc4)cc3)c12` [Compound A-28, 4-Amino-5-(4-benzyloxyphenoxy)quinazoline] gave an IC50 of 32 µM.

Take `COc1ccccc1Oc1cccc2nc(N)nc(N)c12` [Compound A-22, 2,4-Diamino-5-(2-methoxyphenoxy)quinazoline]: half-maximal inhibition (IC50) was put at 26 µM.

A further experiment deals with T1, EGF Receptor (Homo sapiens, UniProt P00533).
T1 construct: expressed in transfected cells; host or cells: NIH3T3 (EGFR-NIH3T3)
T1 sequence (P00533 25-1210): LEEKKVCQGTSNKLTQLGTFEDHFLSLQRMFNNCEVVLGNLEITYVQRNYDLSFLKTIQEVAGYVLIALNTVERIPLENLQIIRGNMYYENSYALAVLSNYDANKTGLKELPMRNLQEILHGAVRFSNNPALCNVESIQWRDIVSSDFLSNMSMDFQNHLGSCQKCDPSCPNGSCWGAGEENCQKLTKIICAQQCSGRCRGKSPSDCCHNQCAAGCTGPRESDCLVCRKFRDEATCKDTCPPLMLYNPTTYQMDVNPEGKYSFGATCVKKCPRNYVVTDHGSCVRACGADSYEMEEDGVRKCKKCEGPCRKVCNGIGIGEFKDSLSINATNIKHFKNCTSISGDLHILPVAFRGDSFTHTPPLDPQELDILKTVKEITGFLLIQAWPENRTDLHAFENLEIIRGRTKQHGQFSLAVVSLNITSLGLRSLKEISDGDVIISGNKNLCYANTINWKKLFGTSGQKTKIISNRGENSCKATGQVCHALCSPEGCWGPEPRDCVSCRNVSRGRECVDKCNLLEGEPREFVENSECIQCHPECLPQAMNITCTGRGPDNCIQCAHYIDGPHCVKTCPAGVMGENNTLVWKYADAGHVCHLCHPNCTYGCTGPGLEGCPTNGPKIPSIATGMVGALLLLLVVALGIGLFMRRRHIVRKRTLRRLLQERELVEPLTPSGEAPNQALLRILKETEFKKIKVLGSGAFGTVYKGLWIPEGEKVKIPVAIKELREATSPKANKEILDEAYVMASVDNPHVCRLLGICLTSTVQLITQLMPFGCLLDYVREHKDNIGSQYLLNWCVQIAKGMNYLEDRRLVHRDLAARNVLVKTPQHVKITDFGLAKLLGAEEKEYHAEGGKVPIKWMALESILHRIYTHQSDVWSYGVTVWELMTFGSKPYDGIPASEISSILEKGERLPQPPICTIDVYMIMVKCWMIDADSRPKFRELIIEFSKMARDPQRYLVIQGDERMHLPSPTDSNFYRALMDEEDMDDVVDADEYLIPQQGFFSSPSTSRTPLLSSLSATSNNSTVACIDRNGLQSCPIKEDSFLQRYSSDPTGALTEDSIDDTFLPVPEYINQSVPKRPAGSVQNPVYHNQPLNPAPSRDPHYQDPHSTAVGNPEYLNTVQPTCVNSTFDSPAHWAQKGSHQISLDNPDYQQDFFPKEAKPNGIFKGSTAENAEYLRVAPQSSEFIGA
Put plainly: EGF Receptor kinase activity in whole cells (EGFR-NIH3T3 assay, EGFR ELISA). The experiment is classed as cell-based. Conditions: Table 5, EGFR ELISA assay in whole cells (EGFR-NIH3T3); read-out: IC50 A549. As for the experimental part:
EGF Receptor kinase activity (EGFR-NIH3T3 assay) in whole cells was measured as described in detail in PCT Publication WO9640116, filed Jun. 5, 1996, by Tang et al., and entitled “Indolinone Compounds for the Treatment of Disease,” incorporated herein by reference in its entirety, including any drawings.
On the technique in general: An ELISA detects its analyte on a solid surface through an enzyme-linked reagent.
Take `COc1ccc(Oc2cccc3nc(N)nc(N)c23)cc1` [Compound A-6, 2,4-Diamino-5-(4-methoxyphenoxy)quinazoline]: the half-maximal inhibitory concentration (IC50) was over 100 µM.

On to `Nc1nc(N)c2c(Oc3ccc(F)cc3)cccc2n1` [Compound A-7, 2,4-Diamino-5-(4-fluorophenoxy)quinazoline], for which the IC50 was over 100 µM.

On to `Nc1nc(N)c2c(Oc3ccccc3)cccc2n1` [Compound A-1, 2,4-Diamino-5-phenoxyquinazoline], for which the IC50 was 24.6 µM.

`COc1cccc(Oc2cccc3nc(N)nc(N)c23)c1` [Compound A-23, 2,4-Diamino-5-(3-methoxyphenoxy)quinazoline]: the IC50 stood at 17.2 µM.

Regarding `Nc1ncnc2cccc(Oc3ccc(OCc4ccccc4)cc3)c12` [Compound A-28, 4-Amino-5-(4-benzyloxyphenoxy)quinazoline], the IC50 is 75.1 µM.

Turning to `COc1ccccc1Oc1cccc2nc(N)nc(N)c12` [Compound A-22, 2,4-Diamino-5-(2-methoxyphenoxy)quinazoline], the IC50 is over 100 µM.
